# Reference: patent US20260022143A1, “Cyclic Peptide Inhibitors of IL-23” (JANSSEN PHARMACEUTICA NV, priority 2022, published 2026)
# Starred links: 1 amine or outer side, 2 acyl side, 3 side chain; linkers in the order of their positions; H or OH if unused. Positions of bridges follow the written chain, without caps; N, C: chain ends. Non-standard residues stand in square brackets, D forms with d. Residues, ends and D or L forms follow the SMILES beside them. *: point of attachment. Trp(7-(3-AcNH-Ph)) = CC(=O)Nc1cccc(-c2cccc3c(C[C@H](N)C(=O)O)c[nH]c23)c1; X36 = C[N+]1(CCCc2cn(-c3ccc(C[C@H](N[*:1])C(=O)[*:2])cc3)nn2)CCOCC1; X33 = C[N+](C)(C)CCCCc1cn(-c2ccc(C[C@H](N[*:1])C(=O)[*:2])cc2)nn1; X16 = C[N+](C)(C)Cc1cn(-c2ccc(C[C@H](N[*:1])C(=O)[*:2])cc2)nn1; Me3N+(CH2)2O(CH2)2O(CH2)2CO = C[N+](C)(C)CCOCCOCCC(=O)*; CH2CH2OCH2CH2OCH2CH2NMe3+ = C[N+](C)(C)CCOCCOCC*; Phe(4-N3) = [N-]=[N+]=Nc1ccc(C[C@H](N)C(=O)O)cc1; Trp(7-Me) = Cc1cccc2c(C[C@H](N)C(=O)O)c[nH]c12; X20 = C[N+](C)(C)CC[C@H](N[*:1])C(=O)[*:2]; dLys(Me3) = C[N+](C)(C)CCCC[C@@H](N)C(=O)O; 2Nal = N[C@@H](Cc1ccc2ccccc2c1)C(=O)O; AEF = NCCOc1ccc(C[C@H](N)C(=O)O)cc1; X22 = CN1CC[N+](C)(CCOCCOCC*)CC1; 3Pal = N[C@@H](Cc1cccnc1)C(=O)O; Lys(Me) = CNCCCC[C@H](N)C(=O)O; X53 = C[N+]1(CCOCCOCC*)CCOCC1; Pen = CC(C)(S)[C@H](N)C(=O)O; Thp = NC1(C(=O)O)CCOCC1; X17 = C[N+]1(CC*)CCOCC1; X3 = C[N+](C)(C)CCCCC*; Sar = CNCC(=O)O
# Assay: Exposed Polar Surface Area (EPSA)
# Assay type: physicochemical
# Settings: SFC on Chirex 3014 column; sample 1 mM DMSO stock; read-out: EPSA
# In short: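 EPSA, in Å^2, is read from SFC retention time through a linear relationship established with eight calibration standards. Separation uses a Chirex 3014 stationary phase, 35 °C, 14 MPa back pressure, and a 5–60% methanol/ammonium formate modifier gradient in CO2.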
row,SMILES,EPSA [A^2]
1,CC(=O)NCCCC[C@@H]1NC(=O)[C@H](Cc2c[nH]c3ccccc23)NC(=O)[C@H]([C@@H](C)O)NC(=O)[C@H](CC(N)=O)NC(=O)[C@@H](NC(=O)[C@@H](CCCNC(=N)N)NC(C)=O)C(C)(C)SSC(C)(C)[C@@H](C(=O)N[C@@H](Cc2ccc(OCC[N+]3(C)CCOCC3)cc2)C(=O)N[C@@H](Cc2ccc3ccccc3c2)C(=O)NC2(C(=O)N[C@@H](CCC(=O)O)C(=O)N[C@@H](CC(N)=O)C(=O)N[C@@H](Cc3cccnc3)C(=O)N(C)CC(N)=O)CCOCC2)NC1=O [compound 429] (Ac-[dR][Pen]NTWK(Ac)[Pen]Y(X17)[2Nal][Thp]EN[3Pal][Sar]-NH2; disulfide 2-7),192
2,CC(=O)NCCCC[C@@H]1NC(=O)[C@H](Cc2c[nH]c3c(C)cccc23)NC(=O)[C@H]([C@@H](C)O)NC(=O)[C@H](CC(N)=O)NC(=O)[C@@H](NC(C)=O)C(C)(C)SSC(C)(C)[C@@H](C(=O)N[C@@H](Cc2ccc(OCC[N+]3(C)CCOCC3)cc2)C(=O)N[C@@H](Cc2ccc3ccccc3c2)C(=O)NC2(C(=O)N[C@@H](CCC(=O)O)C(=O)N[C@@H](CC(N)=O)C(=O)N[C@@H](Cc3cccnc3)C(=O)N(C)CC(N)=O)CCOCC2)NC1=O [compound 431] (Ac-[Pen]NT[Trp(7-Me)]K(Ac)[Pen]Y(X17)[2Nal][Thp]EN[3Pal][Sar]-NH2; disulfide 1-6 (inferred)),174
3,CC(=O)NCCCC[C@@H]1NC(=O)[C@H](Cc2c[nH]c3c(C)cccc23)NC(=O)[C@H]([C@@H](C)O)NC(=O)[C@H](CC(N)=O)NC(=O)[C@@H](NC(C)=O)C(C)(C)SSC(C)(C)[C@@H](C(=O)N[C@@H](Cc2ccc(OCCOCCOCC[N+]3(C)CCOCC3)cc2)C(=O)N[C@@H](Cc2ccc3ccccc3c2)C(=O)NC2(C(=O)N[C@@H](CCC(=O)O)C(=O)N[C@@H](CC(N)=O)C(=O)N[C@@H](Cc3cccnc3)C(=O)N(C)CC(N)=O)CCOCC2)NC1=O [compound 432] (Ac-[Pen]NT[Trp(7-Me)]K(Ac)[Pen]Y(X53)[2Nal][Thp]EN[3Pal][Sar]-NH2; disulfide 1-6 (inferred)),167
4,CC(=O)NCCCC[C@@H]1NC(=O)[C@H](Cc2c[nH]c3c(C)cccc23)NC(=O)[C@H]([C@@H](C)O)NC(=O)[C@H](CC(N)=O)NC(=O)[C@@H](NC(C)=O)C(C)(C)SSC(C)(C)[C@@H](C(=O)N[C@@H](Cc2ccc(OCCOCCOCC[N+]3(C)CCN(C)CC3)cc2)C(=O)N[C@@H](Cc2ccc3ccccc3c2)C(=O)NC2(C(=O)N[C@@H](CCC(=O)O)C(=O)N[C@@H](CC(N)=O)C(=O)N[C@@H](Cc3cccnc3)C(=O)N(C)CC(N)=O)CCOCC2)NC1=O [compound 433] (Ac-[Pen]NT[Trp(7-Me)]K(Ac)[Pen]Y(X22)[2Nal][Thp]EN[3Pal][Sar]-NH2; disulfide 1-6 (inferred)),164
5,CC(=O)NCCCC[C@@H]1NC(=O)[C@H](Cc2c[nH]c3c(C)cccc23)NC(=O)[C@H]([C@@H](C)O)NC(=O)[C@H](CC(N)=O)NC(=O)[C@@H](NC(C)=O)C(C)(C)SSC(C)(C)[C@@H](C(=O)N[C@@H](Cc2ccc(N=[N+]=[N-])cc2)C(=O)N[C@@H](Cc2ccc3ccccc3c2)C(=O)NC2(C(=O)N[C@@H](CCC(=O)O)C(=O)N[C@@H](CC(N)=O)C(=O)N[C@@H](Cc3cccnc3)C(=O)N(C)CC(N)=O)CCOCC2)NC1=O [compound 435] (Ac-[Pen]NT[Trp(7-Me)]K(Ac)[Pen][Phe(4-N3)][2Nal][Thp]EN[3Pal][Sar]-NH2; disulfide 1-6 (inferred)),182
6,CC(=O)N[C@@H]1C(=O)N[C@@H](CC[N+](C)(C)C)C(=O)N[C@@H]([C@@H](C)O)C(=O)N[C@@H](Cc2c[nH]c3c(C)cccc23)C(=O)N[C@@H](CCCCN(C)C(C)=O)C(=O)N[C@H](C(=O)N[C@@H](Cc2ccc(OCCOCCOCC[N+](C)(C)C)cc2)C(=O)N[C@@H](Cc2ccc3ccccc3c2)C(=O)NC2(C(=O)N[C@@H](CCCCN(C)C(C)=O)C(=O)N[C@@H](CC(N)=O)C(=O)N[C@@H](Cc3cccnc3)C(=O)N(C)CC(=O)N(C)C)CCOCC2)C(C)(C)SSC1(C)C [compound 436] (Ac-[Pen][X20]T[Trp(7-Me)][Lys(Me)](Ac)[Pen]Y(CH2CH2OCH2CH2OCH2CH2NMe3+)[2Nal][Thp][Lys(Me)](Ac)N[3Pal][Sar]-NMe2; disulfide 1-6),149
7,"CC(=O)NCCCC[C@@H]1NC(=O)[C@H](Cc2c[nH]c3c(C)cccc23)NC(=O)[C@H]([C@@H](C)O)NC(=O)[C@H](CC(N)=O)NC(=O)[C@@H](NC(=O)CCOCCOCC[N+](C)(C)C)C(C)(C)SSC(C)(C)[C@@H](C(=O)N[C@@H](Cc2ccc(-n3cc(CCC[N+]4(C)CCOCC4)nn3)cc2)C(=O)N[C@@H](Cc2ccc3ccccc3c2)C(=O)NC2(C(=O)N[C@@H](CCCCNC(C)=O)C(=O)N[C@@H](CC(N)=O)C(=O)N[C@@H](Cc3cccnc3)C(=O)N(C)CC(N)=O)CCOCC2)NC1=O [compound 439, cPEG3aCO-Pen(3)-N-T-7MeW-K(Ac)-Pen(3)-F(4TzlMMo3)-2Nal-THP-K(Ac)-N-3Pya-Sar-CONH2] ({Me3N+(CH2)2O(CH2)2O(CH2)2CO}-[Pen]NT[Trp(7-Me)]K(Ac)[Pen][X36][2Nal][Thp]K(Ac)N[3Pal][Sar]-NH2; disulfide 1-6)",167
8,CC(=O)NCCCC[C@@H]1NC(=O)[C@H](Cc2c[nH]c3c(C)cccc23)NC(=O)[C@H]([C@@H](C)O)NC(=O)[C@H](CC(N)=O)NC(=O)[C@@H](NC(C)=O)C(C)(C)SSC(C)(C)[C@@H](C(=O)N[C@@H](Cc2ccc(-n3cc(C[N+](C)(C)C)nn3)cc2)C(=O)N[C@@H](Cc2ccc3ccccc3c2)C(=O)NC2(C(=O)N[C@@H](CCC(=O)O)C(=O)N[C@@H](CC(N)=O)C(=O)N[C@@H](Cc3cccnc3)C(=O)N(C)CC(N)=O)CCOCC2)NC1=O [compound 441] (Ac-[Pen]NT[Trp(7-Me)]K(Ac)[Pen][X16][2Nal][Thp]EN[3Pal][Sar]-NH2; disulfide 1-6 (inferred)),176
9,CC(=O)NCCCC[C@@H]1NC(=O)[C@H](Cc2c[nH]c3c(C)cccc23)NC(=O)[C@H]([C@@H](C)O)NC(=O)[C@H](CC(N)=O)NC(=O)[C@@H](NC(C)=O)C(C)(C)SSC(C)(C)[C@@H](C(=O)N[C@@H](Cc2ccc(-n3cc(CCCC[N+](C)(C)C)nn3)cc2)C(=O)N[C@@H](Cc2ccc3ccccc3c2)C(=O)NC2(C(=O)N[C@@H](CCC(=O)O)C(=O)N[C@@H](CC(N)=O)C(=O)N[C@@H](Cc3cccnc3)C(=O)N(C)CC(N)=O)CCOCC2)NC1=O [compound 442] (Ac-[Pen]NT[Trp(7-Me)]K(Ac)[Pen][X33][2Nal][Thp]EN[3Pal][Sar]-NH2; disulfide 1-6 (inferred)),169
10,"CC(=O)NCCCC[C@@H]1NC(=O)[C@H](Cc2c[nH]c3c(-c4cccc(NC(C)=O)c4)cccc23)NC(=O)[C@H]([C@@H](C)O)NC(=O)[C@H](CC(N)=O)NC(=O)[C@@H](NC(=O)CCOCCOCC[N+](C)(C)C)C(C)(C)SSC(C)(C)[C@@H](C(=O)N[C@@H](Cc2ccc(OCCCCC[N+](C)(C)C)cc2)C(=O)N[C@@H](Cc2ccc3ccccc3c2)C(=O)NC2(C(=O)N[C@@H](CCC(=O)O)C(=O)N[C@@H](CC(N)=O)C(=O)N[C@@H](Cc3cccnc3)C(=O)N(C)CC(N)=O)CCOCC2)NC1=O [compound 444, cPEG3aCO-Pen(3)-N-T-7(3NAcPh)W-K(Ac)-Pen(3)-TMAPF-2Nal-THP-E-N-3Pya-Sar-CONH2] ({Me3N+(CH2)2O(CH2)2O(CH2)2CO}-[Pen]NT[Trp(7-(3-AcNH-Ph))]K(Ac)[Pen]Y(X3)[2Nal][Thp]EN[3Pal][Sar]-NH2; disulfide 1-6)",174
11,"CC(=O)NCCCC[C@@H]1NC(=O)[C@H](Cc2c[nH]c3c(-c4cccc(NC(C)=O)c4)cccc23)NC(=O)[C@H]([C@@H](C)O)NC(=O)[C@H](CC(N)=O)NC(=O)[C@@H](NC(=O)CCOCCOCC[N+](C)(C)C)C(C)(C)SSC(C)(C)[C@@H](C(=O)N[C@@H](Cc2ccc(OCCN)cc2)C(=O)N[C@@H](Cc2ccc3ccccc3c2)C(=O)NC2(C(=O)N[C@@H](CCCCNC(C)=O)C(=O)N[C@@H](CC(N)=O)C(=O)N[C@@H](Cc3cccnc3)C(=O)N(C)CC(N)=O)CCOCC2)NC1=O [compound 445, cPEG3aCO-Pen(3)-N-T-7(3NAcPh)W-K(Ac)-Pen(3)-AEF-2Nal-THP-K(Ac)-N-3Pya-Sar-CONH2] ({Me3N+(CH2)2O(CH2)2O(CH2)2CO}-[Pen]NT[Trp(7-(3-AcNH-Ph))]K(Ac)[Pen][AEF][2Nal][Thp]K(Ac)N[3Pal][Sar]-NH2; disulfide 1-6)",176
12,"CC(=O)NCCCC[C@@H]1NC(=O)[C@H](Cc2c[nH]c3c(C)cccc23)NC(=O)[C@H]([C@@H](C)O)NC(=O)[C@H](CC(N)=O)NC(=O)[C@@H](NC(=O)[C@@H](CCCC[N+](C)(C)C)NC(C)=O)C(C)(C)SSC(C)(C)[C@@H](C(=O)N[C@@H](Cc2ccc(OCCCCC[N+](C)(C)C)cc2)C(=O)N[C@@H](Cc2ccc3ccccc3c2)C(=O)NC2(C(=O)N[C@@H](CCC(=O)O)C(=O)N[C@@H](CC(N)=O)C(=O)N[C@@H](Cc3cccnc3)C(=O)N(C)CC(N)=O)CCOCC2)NC1=O [compound 446, MeCO-k(Me)3-Pen(3)-N-T-7MeW-K(Ac)-Pen(3)-TMAPF-2Nal-THP-E-N-3Pya-Sar-CONH2] (Ac-[dLys(Me3)][Pen]NT[Trp(7-Me)]K(Ac)[Pen]Y(X3)[2Nal][Thp]EN[3Pal][Sar]-NH2; disulfide 2-7)",173
13,CC(=O)NCCCC[C@@H]1NC(=O)[C@H](Cc2c[nH]c3c(-c4cccc(NC(C)=O)c4)cccc23)NC(=O)[C@H]([C@@H](C)O)NC(=O)[C@H](CC(N)=O)NC(=O)[C@@H](NC(=O)[C@@H](CCCC[N+](C)(C)C)NC(C)=O)C(C)(C)SSC(C)(C)[C@@H](C(=O)N[C@@H](Cc2ccc(OCCN)cc2)C(=O)N[C@@H](Cc2ccc3ccccc3c2)C(=O)NC2(C(=O)N[C@@H](CCCCNC(C)=O)C(=O)N[C@@H](CC(N)=O)C(=O)N[C@@H](Cc3cccnc3)C(=O)N(C)CC(N)=O)CCOCC2)NC1=O [compound 449] (Ac-[dLys(Me3)][Pen]NT[Trp(7-(3-AcNH-Ph))]K(Ac)[Pen][AEF][2Nal][Thp]K(Ac)N[3Pal][Sar]-NH2; disulfide 2-7),176
